Assay results published in US4588727A, “Intermediates for pyrrolo[1,2-b][1,2,5]triazepines” (Hoechst-Roussel Pharmaceuticals Inc., priority 1985, dated 1986).
Where a name gives a salt, the structure may show the parent alone.

Experiments:
mice [1] = experiment: 2-phenyl-1,4-benzoquinone-induced writhing test in mice (PQW, analgesia); type: in vivo; settings: Mus musculus, sc, read-out: PQW (% decrease)
Source text: Compounds I and II of the present invention are useful as analgesic agents due to their ability to alleviate pain in mammals. […] Exptl. Biol. Med., 95, 729 (1957)].

[2] = target: benzodiazepine recognition sites; experiment: benzodiazepine (Bz) binding, rat cerebral cortex membrane preparation; settings: rat cortex membranes, 2 nM radioactive benzodiazepine, pH 6.9, 20 minutes at 0-4° C.
Source text: This assay is used to determine potential anxiolytic or anticonvulsant activity via direct interaction with benzodiazepine recognition sites in a membrane preparation obtained from rat brain.
Benzodiazepine is a widely prescribed phychoactive agent. It has various pharmacological properties, including anti-anxiety, anticonvulsant, muscle relaxant and hypnotic effects. The relationships between the pharmacological activities of this compound and the GABA receptor-chlorideionophore complex have been studied in the past. The values of IC50 listed in Table II were determined in the following manner. See Squires and Braestrup, "Benzodiazepine Receptors in Rat Brain", Nature, 266, 732-734 (1977). […]
a. 78.1 g of Tris-HCl q.s. to 1 liter b. 60.6 g of Tris-base q.s to 1 liter c. Adjust pH of Tris HCl to 6.9 at 25° C. by adding Tris base to obtain 0.5M Tris buffer, pH 6.9. d. Make a 1:10 dilution with distilled H2 O to obtain 0.05M Tris buffer, pH 6.9 2. 0.32M sucrose: 21.9 g of sucrose q.s. to 200 ml
3. Radioactive benzodiazepine: this marker compound is made up to a concentration of 80 nM and 50 μl of the solution is added to each tube, which yields a final concentration of 2 nM in the assay.
4. Test Compounds: 1 mM stock solution is made up in a suitable vehicle and serially diluted, such that the final concentration in the assay ranges from 10^-5 to 10^-8 M.
Male Wistar rats are decapitated and the brain rapidly removed. The cerebral cortices are removed, weighed and homogenized with a homogenizer in 20 volumes of ice-cold 0.32M sucrose. This homogenate is contrifuged at 1,000 g for 10 minutes, the pellet is discarded and the supernatant is recentrifuged at 30,000 g for 20 minutes. The resulting membrane pellet is resuspended in 40 volumes of 0.05M Tris buffer, pH 6.9.
1 ml 0.05M Tris buffer, pH 6.9
70 μl 0.5M Tris buffer, pH 6.9
50 μl radioactive benzodiazepine solution
20 μl vehicle or a solution containing an appropriate concentration of test drug 300 μl tissue suspension prepared above
A tube containing the […] listed above is incubated at 0°-4° C. in an ice bath. A 300 μl aliquot of the tissue suspension is added to the tube and the sample is then incubated for 20 minutes at 0°-4° C. and thereafter vacuum-filtered using a suitable filter. The filter is immediately rinsed with three 5 ml washes of ice-cold Tris buffer, pH 6.9. The radioactivity of the filter is counted in 10 ml of a counting cocktail. The value of the radioactive counting obtained for a sample containing a test drug is compared to the counting obtained for the sample not containing the test drug and the ratio between the two computed. The IC50 value for a given test drug is defined as that concentration of the test drug at which said ratio becomes 50% (IC stands for inhibitory concentration).

mice [3] = experiment: supramaximal electroshock assay (SES, anticonvulsant); type: in vivo; settings: Mus musculus, ip, male mice, at peak activity time
Experimental: Compounds I and II of the present invention are useful as anticonvulsant agents. […] Groups of male mice (18-30 grams) are used. Drugs are prepared using distilled water and if insoluble, a surfactant is added. Control animals receive vehicle. Drugs are routinely administered intraperitoneally. The dosage volume is 10 ml/kg.
The animal's eyes are placed across the output terminals of an A.C. shocker that delivers 206 volts rms for 300 milliseconds. Electrode paste coats the animal's eyes at the point of contact with the terminals.
Protection is expressed as normalized percent inhibition relative to vehicle control. [formula]
A time response is carried out using 6 animals per group. Animals are tested at 30, 60 and 120 minutes postdrug. Additional time periods are tested if indicated by previous tests.
When the peak activity time has been determined, a dose response is initiated, using 10 animals per group at that time period. The ED50 and 95% confidence interval are calculated by computerized probit analysis.

rats = experiment: Geller-conflict paradigm with rats (anxiolytic); type: in vivo; settings: i.p., CRF-conflict responding versus previous day's control trial
Source text: Compounds I and II of the present invention are useful as anxiolytic agents. […] See Geller, Irving and Seifter, Psychopharmacologia Vol. 1, 482-492 (1962). Male rats are used as test subjects. They are housed individually and food and water are available ad libitum until they are 300 to 400 grams prior to the start of training. Subsequently they are food deprived until their body weight is reduced to approximately 80% of original and it is maintained at this level by a restricted food diet.
The programming and test equipment consists of solid state devices, shockers and cages within sound-attenuated environmental enclosures. The data is recorded on both solid state print-out counters and cumulative recorders. The cages are equipped with a houselight, a single-lever, cue-lights, a liquid dipper, a speaker and a grid-floor connected to a shocker. Sweetened condensed milk delivered by the liquid-dipper serve as the positive reinforcement for all subjects.
The subjects are trained to lever-press for the milk reward in two distinct response-reward sections. In the anxiety or "conflict" segment, signaled by onset of both tone and cue-lights, a dipper of milk is delivered in response to each lever-press (CRF schedule of reinforcement). However lever presses during this period are also accompanied by a 40 m sec pulse of aversive footshock through the grid-floor. This creates a "conflict between (1) easy access to milk reward and (2) the simultaneous presentation of a painful foot-shock. This "conflict" period is 3 minutes in duration.
During the other segment of this paradigm, the lever presses produces a dipper of milk only at variable intervals of time from 60 to 210 seconds with an average reward of once per 2 minutes (VI-2 min.). No shocks are ever administered during this VI phase of testing which is 15 minutes in duration.
The test procedure consists of four 15 minute (non-shock) VI segments where reinforcement was available on a limited basis. Each VI period is followed by a 3 minute "CRF"-conflict phase when reinforcement is constantly available but always accompanied by an aversive foot-shock. The shock-level is titrated for each subject to reduce the CRF responding to a total of less than 10 lever-presses during the entire test. The rats are tested four days a week. Drugs are administered on the third day and the performance is compared to the previous days control trial. The VI responses are used to evaluate any general debilitating drug effects, while the CRF responses are used to evaluate any "anti-anxiety" effects as indicated by increased responding during the "CRF-conflict" period.
All test compounds are administered by intraperitoneal injection in volumes of 10 cc/kg and the pretreat interval is usually one-half hour.

## CC(C)(C)OC(=O)NCC(=O)Nn1cccc1C(=O)c1ccccc1F [1-[(t-Butoxycarbonylamino)acetamido]-2-(2-fluorobenzoyl)pyrrole]
Mice [1]
  inhibition in vivo at 20 mg/kg: 21%

## O=C1CN=C(c2ccccc2)c2cccn2N1 [5-Phenyl-1H-pyrrolo[1,2-b][1,2,5]triazepin-2(3H)-one]
[2]
  IC50: 6730 nM
Mice [1]
  inhibition in vivo at 20 mg/kg: 31%

## CN(C(=O)CN)n1cccc1C(=O)c1ccccc1Cl [1-(N-Methyl-aminoacetamido)-2-(2-chlorobenzoyl)pyrrole hydrobromide]
Mice [1]
  inhibition in vivo at 20 mg/kg: 42%

## O=C(CNC(=O)OCc1ccccc1)Nn1cccc1C(=O)c1ccccc1 [1-[(Carbobenzyloxyamino)acetamido]-2-benzoylpyrrole]
Mice [1]
  inhibition in vivo at 20 mg/kg: 50%

## CN1C(=O)CN=C(c2ccccc2F)c2ccc(Cl)n21.Cl [8-Chloro-5-(2-fluorophenyl)-1-methyl-1H-pyrrolo[1,2-b][1,2,5]triazepin-2(3H)-one hydrochloride]
[2]
  IC50: 699 nM
Mice [1]
  inhibition in vivo at 20 mg/kg: 19%
Mice [3]
  ED50: 36.1 mg/kg

## CN(C(=O)CNC(=O)OC(C)(C)C)n1cccc1C(=O)c1ccccc1Cl [1-[N-Methyl-(t-butoxycarbonylamino)acetamido]-2-(2-chlorobenzoyl)pyrrole]
Mice [1]
  inhibition in vivo at 20 mg/kg: 47%

## Br.CN(C(=O)CN)n1cccc1C(=O)c1ccccc1F [1-(N-Methyl-aminoacetamido)-2-(2-fluorobenzoyl)pyrrole hydrobromide]
[2]
  IC50: < 10000 nM
rats; dose 40 mg/kg
  Geller dose/CRF: CRF: 11.2
Mice [3]
  ED50: 8.2 mg/kg

## NCC(=O)Nn1cccc1C(=O)c1ccccc1 [1-Aminoacetamido-2-benzoylpyrrole hydrochloride]
Mice [1]
  inhibition in vivo at 20 mg/kg: 23%

## CC(C)(C)OC(=O)NCC(=O)Nn1cccc1C(=O)c1ccccc1Cl [1-[(t-Butoxycarbonylamino)acetamido]-2-(2-chlorobenzoyl)pyrrole]
Mice [1]
  inhibition in vivo at 20 mg/kg: 49%

## CN1C(=O)CN=C(c2ccccc2F)c2cccn21.Cl [5-(2-Fluorophenyl)-1-methyl-1H-pyrrolo[1,2-b][1,2,5]triazepin-2(3H)-one hydrochloride]
[2]
  IC50: 62.1 nM
Mice [1]
  inhibition in vivo at 20 mg/kg: 27%
Mice [3]
  ED50: 43.6 mg/kg

## CN1C(=O)CN=C(c2ccccc2Cl)c2cccn21 [5-(2-Chlorophenyl)-1-methyl-1H-pyrrolo[1,2-b][1,2,5]triazepin-2(3H)-one]
[2]
  IC50: 22.7 nM
rats; dose 40 mg/kg
  Geller dose/CRF: CRF: 1.4
Mice [1]
  inhibition in vivo at 20 mg/kg: 36%
Mice [3]
  ED50: 17.9 mg/kg

## Cc1ccc(C(=O)c2ccccc2F)n1NC(=O)CNCC(=O)Nn1c(C)ccc1C(=O)c1ccccc1F [Di-[(2-(2-fluorobenzoyl)-5-methyl-1H-pyrrol-1-yl)-2-acetamido]amine hydrochloride]
Mice [1]
  inhibition in vivo at 20 mg/kg: 68%

## Br.CN1C(=O)CN=C(c2ccccc2)c2cccn21 [1-Methyl-5-phenyl-1H-pyrrolo[1,2-b][1,2,5]triazepin-2(3H)-one hydrobromide]
[2]
  IC50: 340 nM
rats; dose 40 mg/kg
  Geller dose/CRF: CRF: 22.6
Mice [1]
  inhibition in vivo at 20 mg/kg: 26%

## O=C1CN=C(c2ccccc2F)c2cccn2N1 [5-(2-Fluorophenyl)-1H-pyrrolo[1,2-b][1,2,5]triazepin-2(3H)-one]
[2]
  IC50: 586 nM
rats; dose 40 mg/kg
  Geller dose/CRF: CRF: 2.4

## CN(C)CCNn1cccc1C(=O)c1ccccc1Cl [[2-(2-Chlorobenzoyl)-1H-pyrrol-1-yl]-2-(dimethylamino)ethylamine hydrobromide]
Mice [1]
  inhibition in vivo at 20 mg/kg: 72%

## CCOC(=O)N(CCN(C)C)n1cccc1C(=O)c1ccccc1Cl [[2-(2-Chlorobenzoyl)-1H-pyrrol-1-yl]-2-[(dimethylamino)ethyl]carbamic acid, ethyl ester hydrobromide]
Mice [1]
  inhibition in vivo at 20 mg/kg: 41%

## O=C1CN=C(c2ccccc2Cl)c2cccn2N1 [5-(2-Chlorophenyl)-1H-pyrrolo[1,2-b][1,2,5]triazepin-2(3H)-one]
[2]
  IC50: 204 nM
rats; dose 60 mg/kg
  Geller dose/CRF: CRF: 15
